Patent US6313111A, “Substituted 6H-1,3,4-thiadiazine-2-amines, the use thereof as anaesthetising, cardiovascular and hypometabolic agents, and pharmaceutical composition containing them” (priority 1998, dated 2001)
“And” between values parts separate entries of the source, which are not always exact repeats. Identical values can stand only once. Counter-ions that a name gives are not always drawn.

Tests used:
[1] = rectal (body) temperature of mice measured with medicinal electrothermometer TREM-1; format: in vivo, mice of the BALB line; details: for body temperature: i.p.
Method: In all cases tests were carried out on mice of the BALB line of 3-4 month age. […] In the case of water-soluble compounds, aqueous solutions of the test compounds were injected intraperitoneally (i.p.), while water-insoluble compounds were introduced orally (p.o.).
Rectal temperature changes (absolute magnitues in ° C.) were measured using a medicinal electrothermometer TREM-1 (Table 1). The rate of oxygen consumption was monitored by measuring concentration of oxygen in a closed testing unit with optic-acoustic gas analyser MN 5130. The data on oxygen consumption are given in percents relative to the starting content of oxygen taken as 100%. (Table 2).
Rectal temperature of mice was followed in dynamics after 5, 15, 30, 60, 120, 180, 240, 300, and 360 minutes (Table 3). […] The same decrease in temperature at 190 mg/kg dosage was reached after 15 minutes; in 1.5 hours it reached 22-25° C. and maintained this level over the next 5 hours, that is 13-17° C. below the initial value. After one day, body temperature was restored to the value of 94-96% of initial.

[2] = lethal dose (LD16, LD50) in mice; format: in vivo, mice of the BALB line

c1ccc(C2=NN=C(N3CCOCC3)SC2)cc1 [Compound 1, 2-Morpholino-5-phenyl-6H-1,3,4-thiadiazine, hydrobromide]
body temperature (T) ([1]; 190.0 mg/kg i.p., 20 min): 30.8 ± 0.2 °C
body temperature (T) ([1]; 190.0 mg/kg i.p., 30 min, hydrobromide): 26.9 ± 0.4 °C and 26.9 °C
body temperature (T) ([1]; 190.0 mg/kg i.p., 40 min): 25.9 ± 0.3 °C
body temperature (T) ([1]; 190.0 mg/kg i.p., 60 min): 23.5 ± 0.2 °C
body temperature (T) ([1]; 190.0 mg/kg i.p., 90 min): 21.4 ± 0.2 °C
body temperature (T) ([1]; 190.0 mg/kg i.p., 120 min): 23.0 ± 0.8 °C
body temperature (T) ([1]; 190.0 mg/kg i.p., 180 min): 20.9 ± 0.1 °C
body temperature (T) ([1]; 190.0 mg/kg i.p., 210 min): 21.4 °C
body temperature (T) ([1]; 190.0 mg/kg i.p., 240 min): 21.1 ± 0.1 °C
body temperature (T) ([1]; 190.0 mg/kg i.p., 270 min): 20.8 ± 0.3 °C
body temperature (T) ([1]; 190.0 mg/kg i.p., 300 min, hydrobromide): 20.2 ± 0.0 °C and 20.2 ± 0.2 °C
body temperature (T) ([1]; 190.0 mg/kg i.p., 330 min): 19.8 ± 0.2 °C
body temperature (T) ([1]; 190.0 mg/kg i.p., 390 min): 19.8 ± 0.2 °C
body temperature (T) ([1]; 190.0 mg/kg i.p., 1140 min): 36.9 °C
body temperature (T) ([1]; 190.0 mg/kg i.p., 1620 min): 37.9 ± 0.4 °C
body temperature (T) ([1]; 190.0 mg/kg i.p., 1980 min): 36.9 ± 0.3 °C
time over which the temperature level was maintained ([1]; 190 mg/kg i.p., after reaching 22-25° C. in 1.5 hours): 5 h
body temperature below the initial value ([1]; 190 mg/kg i.p., from 1.5 hours over the next 5 hours): 13-17 °C
body temperature level reached ([1]; 190 mg/kg i.p., in 1.5 hours): 22-25 °C
body temperature (T) ([1]; 279.0 mg/kg i.p., 0 min): 38.9 ± 0.6 °C
body temperature (T) ([1]; 279.0 mg/kg i.p., 10 min): 35.8 ± 0.1 °C
body temperature (T) ([1]; 279.0 mg/kg i.p., 20 min): 30.2 ± 0.1 °C
body temperature (T) ([1]; 279.0 mg/kg i.p., 30 min): 27.1 °C
body temperature (T) ([1]; 279.0 mg/kg i.p., 40 min): 24.7 ± 0.2 °C
body temperature (T) ([1]; 279.0 mg/kg i.p., 60 min): 21.0 ± 0.1 °C
body temperature (T) ([1]; 279.0 mg/kg i.p., 90 min): 20.0 ± 0.1 °C
body temperature (T) ([1]; 279.0 mg/kg i.p., 120 min): 21.0 ± 0.3 °C
body temperature (T) ([1]; 279.0 mg/kg i.p., 180 min): 21.2 ± 0.2 °C
body temperature (T) ([1]; 279.0 mg/kg i.p., 210 min): 21.2 °C
body temperature (T) ([1]; 279.0 mg/kg i.p., 240 min): 20.8 ± 0.1 °C
body temperature (T) ([1]; 279.0 mg/kg i.p., 270 min): 21.5 ± 0.1 °C
body temperature (T) ([1]; 279.0 mg/kg i.p., 300 min): 21.3 ± 0.3 °C
body temperature (T) ([1]; 279.0 mg/kg i.p., 330 min): 22.5 ± 0.3 °C
body temperature (T) ([1]; 279.0 mg/kg i.p., 390 min): 19.4 ± 0.3 °C
body temperature (T) ([1]; 279.0 mg/kg i.p., 1140 min): 20.8 °C
body temperature (T) ([1]; 279.0 mg/kg i.p., 1620 min): 22.6 ± 0.9 °C
body temperature (T) ([1]; 279.0 mg/kg i.p., 1980 min): 21.2 ± 0.3 °C
body temperature (T) ([1]; 365.0 mg/kg i.p., 0 min): 39.6 ± 0.1 °C
body temperature (T) ([1]; 365.0 mg/kg i.p., 10 min): 35.4 ± 0.2 °C
body temperature (T) ([1]; 365.0 mg/kg i.p., 20 min): 30.1 ± 0.2 °C
body temperature (T) ([1]; 365.0 mg/kg i.p., 30 min): 27.2 °C
body temperature (T) ([1]; 365.0 mg/kg i.p., 40 min): 25.5 ± 0.2 °C
body temperature (T) ([1]; 365.0 mg/kg i.p., 60 min): 23.3 ± 0.3 °C
body temperature (T) ([1]; 365.0 mg/kg i.p., 90 min): 21.5 ± 0.2 °C
body temperature (T) ([1]; 365.0 mg/kg i.p., 120 min): 20.9 ± 0.2 °C
body temperature (T) ([1]; 365.0 mg/kg i.p., 180 min): 21.4 ± 0.1 °C
body temperature (T) ([1]; 365.0 mg/kg i.p., 210 min): 21.2 °C
body temperature (T) ([1]; 365.0 mg/kg i.p., 240 min): 21.1 ± 0.0 °C
body temperature (T) ([1]; 365.0 mg/kg i.p., 270 min): 21.4 ± 0.7 °C
body temperature restored, % of initial ([1]; after one day, 190 mg/kg i.p.): 94-96%
body temperature (T) ([1]; dose 36.5 mg/kg (1.06 mM/kg) i.p., 300 min): 22.1 ± 0.0 °C
body temperature (T) ([1]; dose 36.5 mg/kg (1.06 mM/kg) i.p., 330 min): 21.5 ± 0.1 °C
body temperature (T) ([1]; dose 36.5 mg/kg (1.06 mM/kg) i.p., 390 min): 20.0 ± 0.2 °C
body temperature (T) ([1]; dose 36.5 mg/kg (1.06 mM/kg) i.p., 1140 min): 20.8 °C
body temperature (T) ([1]; dose 36.5 mg/kg (1.06 mM/kg) i.p., 1620 min): 21.6 ± 0.1 °C
body temperature (T) ([1]; dose 36.5 mg/kg (1.06 mM/kg) i.p., 1980 min): 22.1 ± 0.2 °C
body temperature ([1]; 0 min, mg/kg: cpd 1 190.0, cpd 2 178.0, cpd 5 190.0, cpd 6 160.0): 39.2 °C
body temperature ([1]; 30 min, mg/kg: cpd 1 190.0, cpd 2 178.0, cpd 5 190.0, cpd 6 160.0): 26.9 °C
body temperature ([1]; 60 min, mg/kg: cpd 1 190.0, cpd 2 178.0, cpd 5 190.0, cpd 6 160.0): 23.5 °C
body temperature ([1]; 90 min, mg/kg: cpd 1 190.0, cpd 2 178.0, cpd 6 160.0): 21.4 °C
body temperature ([1]; 120 min, mg/kg: cpd 1 190.0, cpd 2 178.0, cpd 5 190.0, cpd 6 160.0): 23.0 °C
body temperature ([1]; 180 min, mg/kg: cpd 1 190.0, cpd 2 178.0, cpd 5 190.0, cpd 6 160.0): 20.9 °C
body temperature ([1]; 240 min, mg/kg: cpd 1 190.0, cpd 2 178.0, cpd 5 190.0, cpd 6 160.0): 21.1 °C
body temperature ([1]; 300 min, mg/kg: cpd 1 190.0, cpd 2 178.0, cpd 6 160.0): 20.2 °C
1/2 LD16, calculated ([2]; i.p.): 140 mg/kg
1/2 LD16, experimental ([2]; i.p.): 190 mg/kg
1/16 LD16 (lower end of dose range 1/16 LD16 -LD50) ([2]; i.p.): 10 mg/kg
LD50 ([2]; mouse, in vivo, ip, read-out: LD50 (upper end of dose range 1/16 LD16 -LD50)): 365 mg/kg
